Source: DBAASP
≈ marks a conversion by molar mass, not a printed value.

Experiments:
Assay in all cases: ≥ marks a high value that may be exact or a test limit, other limits are often not marked, values filed in µg/mL are converted to µM
[1] = system: Bacillus megaterium ATCC 10778
Candida albicans MDM8 = system: Candida albicans MDM8
[2] = system: Candida tropicalis IOC 4560
[3] = system: Enterobacter cloacae beta-12
Escherichia coli SBS 363 = system: Escherichia coli SBS 363
Micrococcus luteus A270 = system: Micrococcus luteus A270
[4] = system: Serratia marcescens ATCC 4112
[5] = system: Staphylococcus aureus ATCC 29213
[6] = system: Staphylococcus epidermidis ATCC 12228
[7] = system: Bacillus subtilis ATCC 6633
[8] = system: Pseudomonas aeruginosa ATCC 27853
Bacillus subtilis 168 = system: Bacillus subtilis 168
Escherichia coli B = system: Escherichia coli B
Pseudomonas aeruginosa = system: Pseudomonas aeruginosa
Staphylococcus aureus = system: Staphylococcus aureus
[9] = system: Staphylococcus aureus SH1000
[10] = system: Acinetobacter baumannii ATCC 19606
[11] = system: Candida albicans ATCC 90028
[12] = system: Cryptococcus neoformans ATCC 208821
[13] = system: Escherichia coli ATCC 25922
[14] = system: Klebsiella pneumoniae ATCC 700603
[15] = system: Staphylococcus aureus ATCC 43300
[16] = system: Candida albicans ATCC 10231
[17] = system: Cryptococcus neoformans ATCC 32264
Acinetobacter baumannii = system: Acinetobacter baumannii
[18] = system: Bacillus cereus CGMCC 1.932
[19] = system: Bacillus subtilis CMCC 63501
[20] = system: Enterococcus faecalis ATCC 29212
Escherichia coli 078 = system: Escherichia coli 078
Escherichia coli K88 = system: Escherichia coli K88
Escherichia coli K99 = system: Escherichia coli K99
Escherichia coli UB1005 = system: Escherichia coli UB1005
[21] = system: Listeria monocytogenes CGMCC 1.1075
[22] = system: Pseudomonas aeruginosa PAO1
[23] = system: Salmonella enterica subsp. enterica serovar Pullorum ATCC 7913
[24] = system: Salmonella enterica subsp. enterica serovar Typhimurium ATCC 14028
[25] = system: Salmonella typhimurium ATCC 7731
[26] = system: Staphylococcus aureus ATCC 25923

Row | MIC [1] [µM] | MIC (Candida albicans MDM8) [µM] | MIC [2] [µM] | MIC [3] [µM] | MIC (Escherichia coli SBS 363) [µM] | MIC (Micrococcus luteus A270) [µM] | MIC [4] [µM] | MIC [5] [µM] | MIC [6] [µM] | MIC [8] [µM] | MIC [9] [µM] | MIC [15] [µM] | Structure (SMILES) | further results
1 | 0.8 (≈ 1.2 µg/mL) | 1.6 (≈ 2.41 µg/mL) | 0.8 (≈ 1.2 µg/mL) | 6.3 (≈ 9.49 µg/mL) | 3.1 (≈ 4.67 µg/mL) | 0.8 (≈ 1.2 µg/mL) | 0.2 (≈ 0.301 µg/mL) | 0.8 (≈ 1.2 µg/mL) | 6.3 (≈ 9.49 µg/mL) | – | – | – | CC(C)C[C@H](NC(=O)[C@H](C)NC(=O)CNC(=O)[C@H](CC(C)C)NC(=O)[C@@H](N)Cc1ccccc1)C(=O)N[C@@H](Cc1c[nH]c2ccccc12)C(=O)N[C@@H](CCCCN)C(=O)N[C@H](C(=O)N[C@@H](C)C(=O)N[C@@H](CCCCN)C(=O)N[C@@H](CCCCN)C(=O)N[C@H](C(=O)N[C@@H](Cc1ccccc1)C(N)=O)C(C)C)C(C)C [FLGALWKVAKKVF] | –
2 | 3.1 (≈ 4.54 µg/mL) | 3.1 (≈ 4.54 µg/mL) | 3.1 (≈ 4.54 µg/mL) | ≥ 50 | 0.8 (≈ 1.17 µg/mL) | 0.8 (≈ 1.17 µg/mL) | 0.4 (≈ 0.586 µg/mL) | 0.8 (≈ 1.17 µg/mL) | – | > 50 | – | – | CC(C)C[C@H](NC(=O)[C@H](C)NC(=O)CNC(=O)[C@H](CC(C)C)NC(=O)[C@@H](N)Cc1ccccc1)C(=O)N[C@@H](Cc1c[nH]c2ccccc12)C(=O)N[C@@H](CC(N)=O)C(=O)N[C@H](C(=O)N[C@@H](C)C(=O)N[C@@H](CCCCN)C(=O)N[C@@H](CO)C(=O)N[C@@H](CC(C)C)C(=O)N[C@@H](Cc1ccccc1)C(N)=O)C(C)C [FLGALWNVAKSLF] | MIC [7]: 0.8 µM (≈ 1.17 µg/mL)
3 | – | – | – | – | – | – | – | – | – | – | – | – | CC[C@H](C)[C@H](NC(=O)[C@H](CCCCN)NC(=O)[C@H](CCCCN)NC(=O)[C@H](CC(C)C)NC(=O)[C@H](CC(C)C)NC(=O)[C@H](CO)NC(=O)[C@H](CCSC)NC(=O)[C@H](Cc1c[nH]c2ccccc12)NC(=O)[C@H](CCCCN)NC(=O)CN)C(=O)N[C@@H](CC(C)C)C(=O)N[C@@H](CCCCN)C(N)=O [GKWMSLLKKILK] | MIC (Bacillus subtilis 168): 1.2 µM (≈ 1.73 µg/mL); MIC (Escherichia coli B): 2.7 µM (≈ 3.9 µg/mL); MIC (Pseudomonas aeruginosa): 13.8 µM (≈ 19.9 µg/mL); MIC (Staphylococcus aureus): 6.3 µM (≈ 9.1 µg/mL)
4 | – | – | – | – | – | – | – | – | – | – | ≥ 100 | – | CC[C@H](C)[C@H](NC(=O)[C@H](CC(=O)O)NC(=O)[C@H](Cc1ccccc1)NC(=O)[C@H](CC(C)C)NC(=O)CN)C(=O)N[C@@H](CC(C)C)C(=O)N[C@@H](CCCCN)C(=O)N[C@@H](CCCCN)C(=O)N[C@@H](CC(C)C)C(=O)N[C@@H](CC(C)C)C(=O)N[C@@H](CCCCN)C(=O)N[C@@H](CC(C)C)C(=O)N[C@@H](CC(C)C)C(=O)N[C@@H](CCCCN)C(N)=O [GLFDILKKLLKLLK] | –
5 | – | – | – | – | – | – | – | – | – | > 19 | ≥ 33 | > 19 | CC(C)C[C@H](NC(=O)CN)C(=O)N[C@@H](CC(C)C)C(=O)N[C@@H](CCCCN)C(=O)N[C@@H](CC(C)C)C(=O)N[C@@H](CC(C)C)C(=O)N[C@@H](CCCCN)C(=O)N[C@@H](CCCCN)C(=O)N[C@@H](CC(C)C)C(=O)N[C@@H](CC(C)C)C(=O)N[C@@H](CCCCN)C(=O)N[C@@H](CC(C)C)C(=O)N[C@@H](CC(C)C)C(=O)N[C@@H](CCCCN)C(N)=O [GLLKLLKKLLKLLK] | MIC [10]: 1 µM (≈ 1.62 µg/mL); MIC [11]: 12 µM (≈ 19.4 µg/mL); MIC [12]: 1 µM (≈ 1.62 µg/mL); MIC [13]: > 19 µM; MIC [14]: > 19 µM
6 | 6.3 (≈ 9.2 µg/mL) | 12.5 (≈ 18.3 µg/mL) | 25 (≈ 36.5 µg/mL) | ≥ 50 | ≥ 50 | 25 (≈ 36.5 µg/mL) | ≥ 50 | > 50 | > 50 | – | – | – | CC(C)C[C@H](NC(=O)[C@H](C)NC(=O)CNC(=O)[C@H](CC(C)C)NC(=O)[C@@H](N)CCCCN)C(=O)N[C@@H](Cc1c[nH]c2ccccc12)C(=O)N[C@@H](CC(N)=O)C(=O)N[C@H](C(=O)N[C@@H](C)C(=O)N[C@@H](CCCCN)C(=O)N[C@@H](CO)C(=O)N[C@@H](CCCCN)C(=O)N[C@@H](Cc1ccccc1)C(N)=O)C(C)C [KLGALWNVAKSKF] | –
7 | – | – | – | – | – | – | – | – | – | > 22 | 10 (≈ 14.8 µg/mL) | 22 (≈ 32.5 µg/mL) | CC(C)C[C@H](NC(=O)[C@H](C)NC(=O)CNC(=O)[C@@H](NC(=O)[C@@H](NC(=O)[C@H](CCCCN)NC(=O)[C@H](CCCCN)NC(=O)[C@H](CC(C)C)NC(=O)[C@H](CC(C)C)NC(=O)[C@H](CCCCN)NC(=O)[C@H](CC(C)C)NC(=O)[C@H](CC(C)C)NC(=O)[C@@H](N)CCCCN)C(C)C)C(C)C)C(=O)NCC(N)=O [KLLKLLKKVVGALG] | MIC [10]: 5 µM (≈ 7.39 µg/mL); MIC [11]: 22 µM (≈ 32.5 µg/mL); MIC [12]: 11 µM (≈ 16.3 µg/mL); MIC [13]: 11 µM (≈ 16.3 µg/mL); MIC [14]: 22 µM (≈ 32.5 µg/mL)
8 | – | – | – | – | – | – | – | – | – | – | – | – | NCCCC[C@H](NC(=O)[C@H](CCCCN)NC(=O)[C@H](Cc1c[nH]c2ccccc12)NC(=O)[C@H](CCCCN)NC(=O)[C@H](CCCN=C(N)N)NC(=O)[C@H](CCCN=C(N)N)NC(=O)[C@H](Cc1c[nH]c2ccccc12)NC(=O)[C@H](CCCCN)NC(=O)[C@@H](N)CCCN=C(N)N)C(N)=O [RKWRRKWKK] | MIC [16]: 200 µM (≈ 274 µg/mL); MIC [17]: ≥ 200 µM
9 | – | – | – | – | – | – | – | – | 2 (≈ 3.29 µg/mL) | 8 (≈ 13.2 µg/mL) | – | 2 (≈ 3.29 µg/mL) | C[C@H](NC(=O)[C@H](CCCN=C(N)N)NC(=O)[C@H](Cc1c[nH]c2ccccc12)NC(=O)[C@H](CCCN=C(N)N)NC(=O)[C@H](Cc1c[nH]c2ccccc12)NC(=O)[C@H](Cc1c[nH]c2ccccc12)NC(=O)[C@H](Cc1c[nH]c2ccccc12)NC(=O)[C@H](CCCN=C(N)N)NC(=O)[C@H](Cc1c[nH]c2ccccc12)NC(=O)[C@@H](N)CCCN=C(N)N)C(N)=O [RWRWWWRWRA] | MIC (Acinetobacter baumannii): 1 µM (≈ 1.64 µg/mL); MIC [18]: 16 µM (≈ 26.3 µg/mL); MIC [19]: 2 µM (≈ 3.29 µg/mL); MIC [20]: 4 µM (≈ 6.58 µg/mL); MIC (Escherichia coli 078): 2 µM (≈ 3.29 µg/mL); MIC (Escherichia coli K88): 2 µM (≈ 3.29 µg/mL); MIC (Escherichia coli K99): 2 µM (≈ 3.29 µg/mL); MIC (Escherichia coli UB1005): 2 µM (≈ 3.29 µg/mL); MIC [21]: 1 µM (≈ 1.64 µg/mL); MIC [22]: 8 µM (≈ 13.2 µg/mL); MIC [23]: 8 µM (≈ 13.2 µg/mL); MIC [24]: 4 µM (≈ 6.58 µg/mL); MIC [25]: 8 µM (≈ 13.2 µg/mL); MIC [26]: 4 µM (≈ 6.58 µg/mL)
10 | – | – | – | – | – | – | – | – | – | – | – | – | NC(=O)CC[C@H](NC(=O)[C@H](Cc1c[nH]c2ccccc12)NC(=O)[C@H](CCCN=C(N)N)NC(=O)[C@H](CCCN=C(N)N)NC(=O)[C@H](Cc1c[nH]c2ccccc12)NC(=O)[C@H](Cc1c[nH]c2ccccc12)NC(=O)[C@H](CCCN=C(N)N)NC(=O)[C@@H](N)Cc1c[nH]c2ccccc12)C(=O)N[C@@H](CCCN=C(N)N)C(N)=O [WRWWRRWQR] | MIC [16]: 50 µM (≈ 75.7 µg/mL); MIC [17]: 25 µM (≈ 37.9 µg/mL)
